Results as given in patent publication US12129246B1, “Hydroquinazoline derivatives for the treatment of a disease or disorder” (Novartis AG, priority 2023, dated 2024).
Where two headings read alike, the source gives them in different places.

Assays:
[1] = target: T1, human NPR1 (Homo sapiens, UniProt P16066); experiment: Cellular cGMP production assay, human NPR1 expressing CHO-K1 cells (CisBio HTRF); assay type: cell-based; conditions: for AC50: cGMP production, 30 min at 37° C., 12-point dose-response from 30 μM; for Human NPR1 Amax (% of ANP): maximum cGMP production as percentage of the maximum cGMP produced with ANP
T1 construct: host or cells: CHO-K1
T1 sequence (P16066 33-1061): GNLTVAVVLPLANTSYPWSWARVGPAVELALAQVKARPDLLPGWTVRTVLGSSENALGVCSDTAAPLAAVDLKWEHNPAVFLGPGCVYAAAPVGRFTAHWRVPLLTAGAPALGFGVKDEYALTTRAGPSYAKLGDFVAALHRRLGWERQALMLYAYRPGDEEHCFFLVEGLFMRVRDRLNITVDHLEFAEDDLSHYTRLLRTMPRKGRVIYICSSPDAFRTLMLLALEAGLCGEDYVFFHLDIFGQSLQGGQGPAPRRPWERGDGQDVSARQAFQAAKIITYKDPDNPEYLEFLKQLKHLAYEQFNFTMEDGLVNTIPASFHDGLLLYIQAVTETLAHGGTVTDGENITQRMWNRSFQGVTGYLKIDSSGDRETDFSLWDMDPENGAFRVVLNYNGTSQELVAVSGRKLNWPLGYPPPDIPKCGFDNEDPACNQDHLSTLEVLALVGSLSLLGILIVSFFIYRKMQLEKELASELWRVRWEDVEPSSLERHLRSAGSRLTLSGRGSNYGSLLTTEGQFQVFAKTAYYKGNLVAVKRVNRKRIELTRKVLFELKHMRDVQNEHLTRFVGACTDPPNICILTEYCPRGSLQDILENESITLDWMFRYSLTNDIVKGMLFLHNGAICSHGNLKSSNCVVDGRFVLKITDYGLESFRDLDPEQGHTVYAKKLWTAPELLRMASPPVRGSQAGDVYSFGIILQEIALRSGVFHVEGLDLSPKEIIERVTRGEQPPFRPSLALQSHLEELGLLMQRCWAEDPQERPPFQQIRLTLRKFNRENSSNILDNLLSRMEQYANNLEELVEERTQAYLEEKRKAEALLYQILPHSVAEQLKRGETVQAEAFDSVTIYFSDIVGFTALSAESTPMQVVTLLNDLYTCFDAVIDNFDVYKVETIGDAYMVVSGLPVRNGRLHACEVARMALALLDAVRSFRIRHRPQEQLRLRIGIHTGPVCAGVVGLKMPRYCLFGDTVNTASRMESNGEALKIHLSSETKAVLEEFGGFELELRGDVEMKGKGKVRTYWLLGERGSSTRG
Method in brief: (§1)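 Step 1: add buffer (PBS, 0.1% BSA, 1 mM IBMX) and compounds, 3-fold series from 30 μM top. Step 2: incubate 30 min, 37 °C. Step 3: lyse; HTRF reagents 1 h at RT.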

[2] = target: monkey NPR1 (Macaca fascicularis, UniProt A0A7N9DBT9); experiment: Cellular cGMP production assay, monkey NPR1 expressing CHO-K1 cells (CisBio HTRF); assay type: cell-based; conditions: for Monkey NPR1 Amax (% of ANP): maximum cGMP production as percentage of the maximum cGMP produced with ANP
Method in brief: as §1

[3] = cGMP production, monkey NPR1 CHO-K1 cells, 30 min at 37° C., 12-point dose-response from 30 μM, read-out: Monkey NPR1 AC50

Chain of monkey NPR1 (A0A7N9DBT9 entry or part of it): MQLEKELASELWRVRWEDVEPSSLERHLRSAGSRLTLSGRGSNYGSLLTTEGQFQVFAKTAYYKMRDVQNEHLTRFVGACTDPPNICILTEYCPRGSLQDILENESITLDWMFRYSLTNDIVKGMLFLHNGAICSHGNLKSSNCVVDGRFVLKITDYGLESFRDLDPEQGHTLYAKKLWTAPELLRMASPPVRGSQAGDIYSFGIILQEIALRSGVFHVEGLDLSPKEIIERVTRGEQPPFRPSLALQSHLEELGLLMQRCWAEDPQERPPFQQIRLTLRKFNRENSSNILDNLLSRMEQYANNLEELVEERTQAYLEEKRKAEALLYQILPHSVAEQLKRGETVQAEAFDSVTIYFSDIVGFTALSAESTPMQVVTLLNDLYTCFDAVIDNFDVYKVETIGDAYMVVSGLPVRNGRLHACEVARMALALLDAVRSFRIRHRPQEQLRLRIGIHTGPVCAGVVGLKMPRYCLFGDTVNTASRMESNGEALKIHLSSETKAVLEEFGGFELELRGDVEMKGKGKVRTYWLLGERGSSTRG

CC[C@@H](Nc1nc2c(c(N[C@@H](CN3CCCC3)c3ccccc3)n1)C[C@H](c1ccccc1)CC2)[C@H]1CC[C@H](C(=O)O)CC1 [Compound 85, (1R,4r)-4-((R)-1-(((R)-6-phenyl-4-(((R)-1-phenyl-2-(pyrrolidin-1-yl)ethyl)amino)-5,6,7,8-tetrahydroquinazolin-2-yl)amino)propyl)cyclohexane-1-carboxylic acid]
AC50 [1]: 285 nM
Human NPR1 Amax (% of ANP) [1]: 102.461 % of ANP
AC50 [2, 3]: 238 nM
Monkey NPR1 Amax (% of ANP) ([2]; monkey NPR1 CHO-K1 cells): 95.638 % of ANP

CC[C@@H](Nc1nc2c(c(N[C@@H](CN3C4CCCC3CCC4)c3cnn(CC)c3)n1)C[C@@H](c1cccc(F)c1)CC2)[C@H]1CC[C@H](C(=O)O)CC1 [Compound 10, (1R,4r)-4-((R)-1-(((S)-4-(((R)-2-((1S,5S)-9-azabicyclo[3.3.1]nonan-9-yl)-1-(1-ethyl-1H-pyrazol-4-yl)ethyl)amino)-6-(3-fluorophenyl)-5,6,7,8-tetrahydroquinazolin-2-yl)amino)propyl)cyclohexane-1-carboxylic acid]
AC50 [1]: 91 nM
Human NPR1 Amax (% of ANP) [1]: 96.065 % of ANP
AC50 [2]: 73 nM
Monkey NPR1 Amax (% of ANP) ([2]; monkey NPR1 CHO-K1 cells): 97.058 % of ANP

CC[C@H]([C@H]1CC[C@H](C(=O)O)CC1)N(C)c1nc2c(c(N[C@@H](CN3C4CCCC3CC(O)C4)c3cnn(CC)c3)n1)C[C@H](c1cccc(F)c1)CC2 (stereo partly drawn) [Compound 79, (1R,4r)-4-((1R)-1-(((6R)-4-(((1R)-1-(1-ethyl-1H-pyrazol-4-yl)-2-((1R,5S)-3-hydroxy-9-azabicyclo[3.3.1]nonan-9-yl)ethyl)amino)-6-(3-fluorophenyl)-5,6,7,8-tetrahydroquinazolin-2-yl)(methyl)amino)propyl)cyclohexane-1-carboxylic acid]
AC50 [1]: 257 nM
Human NPR1 Amax (% of ANP) [1]: 101.351 % of ANP
AC50 [2]: 327 nM
Monkey NPR1 Amax (% of ANP) ([2]; monkey NPR1 CHO-K1 cells): 104.610 % of ANP

CC[C@@H](Nc1nc2c(c(N[C@@H](CN3CCCC[C@H]3C)c3cnn(C)c3)n1)C[C@H](c1ccccc1)CC2)[C@H]1CC[C@H](C(=O)O)CC1 [Compound 90, (1R,4r)-4-((R)-1-(((R)-4-(((R)-1-(1-methyl-1H-pyrazol-4-yl)-2-((R)-2-methylpiperidin-1-yl)ethyl)amino)-6-phenyl-5,6,7,8-tetrahydroquinazolin-2-yl)amino)propyl)cyclohexane-1-carboxylic acid]
AC50 [1]: 313 nM
Human NPR1 Amax (% of ANP) [1]: 103.308 % of ANP
AC50 [2, 3]: 224 nM
Monkey NPR1 Amax (% of ANP) ([2]; monkey NPR1 CHO-K1 cells): 106.347 % of ANP

CC[C@@H](N(C)c1nc2c(c(N[C@@H](CN3C4CCCC3CC4)c3cnc(C)s3)n1)C[C@H](c1cccc(F)c1)CC2)C12CC(C(=O)O)(C1)C2 [Compound 77, 3-((1R)-1-(((6R)-4-(((1S)-2-(8-azabicyclo[3.2.1]octan-8-yl)-1-(2-methylthiazol-5-yl)ethyl)amino)-6-(3-fluorophenyl)-5,6,7,8-tetrahydroquinazolin-2-yl)(methyl)amino)propyl)bicyclo[1.1.1]pentane-1-carboxylic acid]
AC50 [1]: 249 nM
Human NPR1 Amax (% of ANP) [1]: 95.666 % of ANP
AC50 [2]: 134 nM
Monkey NPR1 Amax (% of ANP) ([2]; monkey NPR1 CHO-K1 cells): 96.715 % of ANP

CC[C@H]([C@H]1CC[C@H](C(=O)O)CC1)N(C)c1nc2c(c(N[C@@H](CN3CCC[C@H](CO)C3)c3cnn(C)c3)n1)C[C@H](c1cccc(F)c1)CC2 [Compound 72, (1R,4r)-4-((R)-1-(((R)-6-(3-fluorophenyl)-4-(((R)-2-((S)-3-(hydroxymethyl)piperidin-1-yl)-1-(1-methyl-1H-pyrazol-4-yl)ethyl)amino)-5,6,7,8-tetrahydroquinazolin-2-yl)(methyl)amino)propyl)cyclohexane-1-carboxylic acid]
AC50 [1]: 242 nM
Human NPR1 Amax (% of ANP) [1]: 99.718 % of ANP
AC50 [2, 3]: 137 nM
Monkey NPR1 Amax (% of ANP) ([2]; monkey NPR1 CHO-K1 cells): 104.824 % of ANP

CC[C@H]([C@H]1CC[C@H](C(=O)O)CC1)N(C)c1nc2c(c(N[C@@H](CN3CCCC(F)(F)CC3)c3cnn(C)c3)n1)C[C@H](c1ccccc1)CC2 [Compound 150, (1R,4r)-4-((R)-1-(((R)-4-(((R)-2-(4,4-difluoroazepan-1-yl)-1-(1-methyl-1H-pyrazol-4-yl)ethyl)amino)-6-phenyl-5,6,7,8-tetrahydroquinazolin-2-yl)(methyl)amino)propyl)cyclohexane-1-carboxylic acid]
AC50 [1]: 1160 nM
Human NPR1 Amax (% of ANP) [1]: 130.487 % of ANP
AC50 [2, 3]: 1040 nM
Monkey NPR1 Amax (% of ANP) ([2]; monkey NPR1 CHO-K1 cells): 156.200 % of ANP

CC[C@H]([C@H]1CC[C@H](C(=O)O)CC1)N(C)c1nc2c(c(N[C@@H](CN3CCC[C@H](C)C3)c3cnn(C)c3)n1)C[C@H](c1ccc(F)cc1)CC2 [Compound 14, (1R,4r)-4-((R)-1-(((R)-6-(4-fluorophenyl)-4-(((R)-1-(1-methyl-1H-pyrazol-4-yl)-2-((S)-3-methylpiperidin-1-yl)ethyl)amino)-5,6,7,8-tetrahydroquinazolin-2-yl)(methyl)amino)propyl)cyclohexane-1-carboxylic acid]
AC50 [1]: 97 nM
Human NPR1 Amax (% of ANP) [1]: 94.761 % of ANP
AC50 [2, 3]: 62 nM
Monkey NPR1 Amax (% of ANP) ([2]; monkey NPR1 CHO-K1 cells): 88.286 % of ANP

CC[C@H]([C@H]1CC[C@H](C(=O)O)CC1)N(C)c1nc2c(c(N[C@@H](CN3C4CCCC3CC4)c3cnn(C)c3)n1)C[C@H](c1ccccc1F)CC2 [Compound 62, (1R,4r)-4-((1R)-1-(((6R)-4-(((1R)-2-(8-azabicyclo[3.2.1]octan-8-yl)-1-(1-methyl-1H-pyrazol-4-yl)ethyl)amino)-6-(2-fluorophenyl)-5,6,7,8-tetrahydroquinazolin-2-yl)(methyl)amino)propyl)cyclohexane-1-carboxylic acid]
AC50 [1]: 207 nM
Human NPR1 Amax (% of ANP) [1]: 94.244 % of ANP
AC50 [2]: 133 nM
Monkey NPR1 Amax (% of ANP) ([2]; monkey NPR1 CHO-K1 cells): 103.497 % of ANP

CC[C@@H]1CCCCN1C[C@H](Nc1nc(N[C@H](CC)[C@H]2CC[C@H](C(=O)O)CC2)nc2c1C[C@H](c1ccccc1)CC2)c1cnn(C)c1 [Compound 96, (1R,4r)-4-((R)-1-(((R)-4-(((R)-2-((R)-2-ethylpiperidin-1-yl)-1-(1-methyl-1H-pyrazol-4-yl)ethyl)amino)-6-phenyl-5,6,7,8-tetrahydroquinazolin-2-yl)amino)propyl)cyclohexane-1-carboxylic acid]
AC50 [1]: 336 nM
Human NPR1 Amax (% of ANP) [1]: 103.654 % of ANP
AC50 [2, 3]: 106 nM
Monkey NPR1 Amax (% of ANP) ([2]; monkey NPR1 CHO-K1 cells): 101.912 % of ANP

CC[C@H]([C@H]1CC[C@H](C(=O)O)CC1)N(C)c1nc2c(c(N[C@@H](CN3CC4CCC3C4)c3cnn(C)c3)n1)C[C@](C)(c1ccccc1)CC2 (stereo partly drawn) [Compound 68, (1R,4r)-4-((1R)-1-(((6R)-4-(((1R)-2-(2-azabicyclo[2.2.1]heptan-2-yl)-1-(1-methyl-1H-pyrazol-4-yl)ethyl)amino)-6-methyl-6-phenyl-5,6,7,8-tetrahydroquinazolin-2-yl)(methyl)amino)propyl)cyclohexane-1-carboxylic acid]
AC50 [1]: 234 nM
Human NPR1 Amax (% of ANP) [1]: 96.721 % of ANP
AC50 [2, 3]: 95 nM
Monkey NPR1 Amax (% of ANP) ([2]; monkey NPR1 CHO-K1 cells): 101.066 % of ANP

CC[C@@H](Nc1nc2c(c(N[C@@H](CN3CCC(C)CC3)c3cnn(C)c3)n1)C[C@H](c1ccccc1)CC2)[C@H]1CC[C@H](C(=O)O)CC1 [Compound 121, (1R,4r)-4-((R)-1-(((R)-4-(((R)-1-(1-methyl-1H-pyrazol-4-yl)-2-(4-methylpiperidin-1-yl)ethyl)amino)-6-phenyl-5,6,7,8-tetrahydroquinazolin-2-yl)amino)propyl)cyclohexane-1-carboxylic acid]
AC50 [1]: 570 nM
Human NPR1 Amax (% of ANP) [1]: 100.330 % of ANP
AC50 [2, 3]: 382 nM
Monkey NPR1 Amax (% of ANP) ([2]; monkey NPR1 CHO-K1 cells): 102.117 % of ANP

CC[C@H]([C@H]1CC[C@H](C(=O)O)CC1)N(C)c1nc2c(c(N[C@@H](CN3CCCCC3)c3cnn(C4CC4)c3)n1)C[C@H](c1ccccc1)CC2 [Compound 97, (1R,4r)-4-((R)-1-(((R)-4-(((R)-1-(1-cyclopropyl-1H-pyrazol-4-yl)-2-(piperidin-1-yl)ethyl)amino)-6-phenyl-5,6,7,8-tetrahydroquinazolin-2-yl)(methyl)amino)propyl)cyclohexane-1-carboxylic acid]
AC50 [1]: 338 nM
Human NPR1 Amax (% of ANP) [1]: 107.286 % of ANP
AC50 [2, 3]: 192 nM
Monkey NPR1 Amax (% of ANP) ([2]; monkey NPR1 CHO-K1 cells): 96.148 % of ANP
